From BindingDB's records for doi:10.1021/acs.jmedchem.2c01800 (China Pharmaceutical University, 2023)

Legend:
[1] = target: T1, Signal transducer and activator of transcription 3 (Homo sapiens, UniProt P40763); assay: Inhibition of IL-23 induced STAT3 phosphorylation in human KIT225 cells by AlphaLISA assay
[2] = target: T1, Signal transducer and activator of transcription 3; assay: Inhibition of IL-23 induced STAT3 phosphorylation in human Jurkat cells incubated for 30 mins by microplate reader analysis
[3] = target: T1, Signal transducer and activator of transcription 3; assay: Inhibition of IL-6 induced STAT3 phosphorylation in human TF-1 cells by AlphaLISA assay

T1 sequence (P40763 whole entry): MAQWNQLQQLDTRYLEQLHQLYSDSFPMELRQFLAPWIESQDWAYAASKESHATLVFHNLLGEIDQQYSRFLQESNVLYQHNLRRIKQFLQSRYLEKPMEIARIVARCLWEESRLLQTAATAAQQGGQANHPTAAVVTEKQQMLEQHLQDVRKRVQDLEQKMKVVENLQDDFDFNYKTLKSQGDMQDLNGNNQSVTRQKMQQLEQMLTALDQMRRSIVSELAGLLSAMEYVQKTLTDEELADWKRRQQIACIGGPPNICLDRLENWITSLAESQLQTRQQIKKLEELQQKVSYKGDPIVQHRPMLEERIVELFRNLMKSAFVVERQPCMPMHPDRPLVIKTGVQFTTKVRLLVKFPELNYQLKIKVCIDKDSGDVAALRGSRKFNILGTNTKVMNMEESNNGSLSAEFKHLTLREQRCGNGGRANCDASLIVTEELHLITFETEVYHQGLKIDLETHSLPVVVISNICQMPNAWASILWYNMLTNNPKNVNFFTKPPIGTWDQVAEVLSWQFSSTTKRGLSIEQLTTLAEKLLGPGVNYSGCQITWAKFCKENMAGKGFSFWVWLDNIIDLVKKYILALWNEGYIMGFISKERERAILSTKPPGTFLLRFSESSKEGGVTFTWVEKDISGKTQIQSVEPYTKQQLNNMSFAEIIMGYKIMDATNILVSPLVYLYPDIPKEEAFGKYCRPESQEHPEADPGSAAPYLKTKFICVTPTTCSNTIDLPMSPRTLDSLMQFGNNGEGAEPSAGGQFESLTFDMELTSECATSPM

SMILES	IC50 [1] [nM]	IC50 [2] [nM]	IC50 [3] [nM]
CCOc1cccc(Nc2cc(NC)n3ncc(C(=O)N[C@@H]4CCN(C)C4=O)c3n2)n1	29	–	–
CNC(=O)c1nnc(NC(=O)N2CCC2)cc1Nc1cccc(-c2ncn(C)n2)c1OC [US11053219, Example 28]	28	–	5900
CNc1cc(Nc2cccn(-c3ccccn3)c2=O)nc2c(C(=O)N[C@@H]3CCN(C)C3=O)cnn12	65	–	–

Further lines, results first:

IC50 [1] [nM]	IC50 [2] [nM]	IC50 [3] [nM]	SMILES
9	–	–	CNc1cc(Nc2ccccc2OC)nc2c(C(=O)N[C@@H]3CCN(C)C3=O)cnn12
5.9	–	–	[2H]C([2H])([2H])NC(=O)c1nnc(Nc2ccc(N3CC(O)C3)cn2)cc1Nc1cccc(-c2ncn(C)n2)c1OC
–	2.4	–	[2H]C([2H])([2H])NC(=O)c1nnc(NC(=O)C2CC2)cc1Nc1cccc(-c2ncc(-c3cccnc3C(F)(F)F)cn2)c1OC
